Values joined by “and” are separate entries in the source; they are usually repeats but may differ in a detail not shown here. Equal values may be shown once. Toxic doses and inconclusive results are not listed.

This assay has as its system P388 leukemia ip, CD2F1 mice, survival T/C. In words: NCI In Vivo Anticancer Drug Screen. Data for tumor model P388 Leukemia (intraperitoneal) in CD2F1 (CDF1) mice. The note with it: endpoint: median survival time, higher = longer survival. The method in brief: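 Mice carrying the transplanted tumor received test compound or vehicle. Survival was recorded in each group, and the value is the treated-group measurement divided by that of the vehicle-treated control group.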

Where [1] appears, read: dose: 60.0 mg/kg/injection, schedule: Q01DX005 (ip), vehicle: saline with Tween-80.
[2] abbreviates: dose: 120.0 mg/kg/injection, schedule: Q01DX005 (ip), vehicle: saline with Tween-80.
[3] abbreviates: dose: 240.0 mg/kg/injection, schedule: Q01DX005 (ip), vehicle: saline with Tween-80.
Setting [4] is: dose: 25.0 mg/kg/injection, schedule: Q01DX009 (ip), vehicle: Klucel (hydroxypropylcellulose) (HPC).
Where [5] appears, read: dose: 50.0 mg/kg/injection, schedule: Q01DX009 (ip), vehicle: Klucel (hydroxypropylcellulose) (HPC).
[6] abbreviates: dose: 100.0 mg/kg/injection, schedule: Q01DX009 (ip), vehicle: Klucel (hydroxypropylcellulose) (HPC).
The mark [7] stands for this setting: dose: 25.0 mg/kg/injection, schedule: Q01DX005 (ip), vehicle: saline with Tween-80.
Where [8] appears, read: dose: 12.5 mg/kg/injection, schedule: Q01DX009 (ip), vehicle: saline.
[9] abbreviates: dose: 25.0 mg/kg/injection, schedule: Q01DX009 (ip), vehicle: saline.
[10] abbreviates: dose: 50.0 mg/kg/injection, schedule: Q01DX009 (ip), vehicle: saline.
The mark [11] stands for this setting: dose: 100.0 mg/kg/injection, schedule: Q01DX009 (ip), vehicle: saline.
Setting [12] is: dose: 50.0 mg/kg/injection, schedule: Q01DX009 (ip), vehicle: saline with Tween-80.
[13] abbreviates: dose: 100.0 mg/kg/injection, schedule: Q01DX009 (ip), vehicle: saline with Tween-80.
Where [14] appears, read: dose: 200.0 mg/kg/injection, schedule: Q01DX009 (ip), vehicle: saline with Tween-80.
Setting [15] is: dose: 50.0 mg/kg/injection, schedule: Q01DX005 (ip), vehicle: Klucel (hydroxypropylcellulose) (HPC).
Setting [16] is: dose: 100.0 mg/kg/injection, schedule: Q01DX005 (ip), vehicle: Klucel (hydroxypropylcellulose) (HPC).
The mark [17] stands for this setting: dose: 200.0 mg/kg/injection, schedule: Q01DX005 (ip), vehicle: Klucel (hydroxypropylcellulose) (HPC).

In the case of `O=C1c2cc(F)ccc2OC2CCON12` (stereo unspecified), the T/C reads like this: (dose: 100.0 mg/kg/injection, schedule: Q01DX001 (ip), vehicle: Klucel (hydroxypropylcellulose) (HPC)) 97 % of control; (dose: 200.0 mg/kg/injection, schedule: Q01DX001 (ip), vehicle: Klucel (hydroxypropylcellulose) (HPC)) 97 % of control; (dose: 400.0 mg/kg/injection, schedule: Q01DX001 (ip), vehicle: Klucel (hydroxypropylcellulose) (HPC)) 103 % of control.
As to `CC(C1N(c2ccc(C(=O)NC(CCC(=O)O)C(=O)O)cc2)CC2CNc3nc(N)[nH]c(=O)c3N21)C1N(c2ccc(C(=O)NC(CCC(=O)O)C(=O)O)cc2)CC2CNc3nc(N)[nH]c(=O)c3N21` (stereo unspecified), the T/C is 94 % of control (dose: 50.0 mg/kg/injection, schedule: Q01DX001 (ip), vehicle: saline); 108 % of control (dose: 100.0 mg/kg/injection, schedule: Q01DX001 (ip), vehicle: saline); 116 % of control (dose: 200.0 mg/kg/injection, schedule: Q01DX001 (ip), vehicle: saline).
Regarding `CC(=O)OCC1OC(n2cnc(C(N)=S)c2N)C(OC(C)=O)C1OC(C)=O` (stereo unspecified), the T/C runs as follows: under setting [1], 100 % of control; under setting [2], 103 % of control; under setting [3], 110 % of control.
Consider `CC/C=c1/[nH]c(=O)/c(=C\c2ccc([N+](=O)[O-])cc2)[nH]c1=O`, for which the T/C under setting [4] was 90 % of control; the T/C under setting [5] was 87 % of control and 91 % of control; the T/C under setting [6] was 86 % of control; the T/C (dose: 200.0 mg/kg/injection, schedule: Q01DX009 (ip), vehicle: Klucel (hydroxypropylcellulose) (HPC)) was 94 % of control.
For `CC(NNC(=S)N1CCCC1)c1cc2ccccc2cn1` (stereo unspecified), the T/C reads like this: under setting [7], 104 % of control and 108 % of control; (dose: 50.0 mg/kg/injection, schedule: Q01DX005 (ip), vehicle: saline with Tween-80) 110 % of control and 123 % of control; (dose: 100.0 mg/kg/injection, schedule: Q01DX005 (ip), vehicle: saline with Tween-80) 104 % of control.
Turning to `COP(=O)(OC)C(=[N+]=[N-])c1ccccc1`, the T/C is 98 % of control (dose: 6.25 mg/kg/injection, schedule: Q01DX009 (ip), vehicle: water); 106 % of control (dose: 12.5 mg/kg/injection, schedule: Q01DX009 (ip), vehicle: water); 93 % of control (dose: 50.0 mg/kg/injection, schedule: Q01DX009 (ip), vehicle: water); 98 % of control (dose: 100.0 mg/kg/injection, schedule: Q01DX009 (ip), vehicle: water); 90 % of control (dose: 200.0 mg/kg/injection, schedule: Q01DX009 (ip), vehicle: water).
`COc1cc(N(CCCl)CCCl)ccc1C=Nc1ccccc1C(=O)O`: the T/C runs as follows: (dose: 12.37 mg/kg/injection, schedule: Q04DX003 (ip), vehicle: saline with Tween-80) 195 % of control; (dose: 18.75 mg/kg/injection, schedule: Q04DX003 (ip), vehicle: saline with Tween-80) 181 % of control and 268 % of control.
As for `CN1C(=O)Cc2ccccc2C1=O`, the T/C under setting [8] was 103 % of control, the T/C under setting [9] is 101 % of control, the T/C under setting [10] was 119 % of control and the T/C under setting [11] was 103 % of control.
Consider `O=CC(=O)c1ccc(O)cc1`, for which the T/C (dose: 18.8 mg/kg/injection, schedule: Q04DX003 (ip), vehicle: saline) was 101 % of control; the T/C (dose: 37.5 mg/kg/injection, schedule: Q04DX003 (ip), vehicle: saline) is 100 % of control; the T/C (dose: 75.0 mg/kg/injection, schedule: Q04DX003 (ip), vehicle: saline) was 103 % of control; the T/C (dose: 150.0 mg/kg/injection, schedule: Q04DX003 (ip), vehicle: saline) was 109 % of control.
In the case of `C=C(C)C(=O)OC1c2c(C)coc2C(=O)C2CCCC(C)C21C` (stereo unspecified), the T/C was 101 % of control (dose: 25.0 mg/kg/injection, schedule: Q01DX009 (ip), vehicle: saline with Tween-80); 98 % of control under setting [12]; 102 % of control under setting [13]; 96 % of control under setting [14].
On to `CC1(C)OP(=O)(O)C=C1[Se]c1ccccc1`, for which the T/C by setting is: under setting [15], 100 % of control; under setting [16], 102 % of control; under setting [17], 94 % of control.
Consider `CN1/C(=C/C2=C([O-])C(=C/C3=[N+](C)c4ccccc4C3(C)C)/C2=O)C(C)(C)c2ccccc21`, for which the T/C (dose: 60.0 mg/kg/injection, schedule: Q01DX005 (ip), vehicle: Klucel (hydroxypropylcellulose) (HPC)) is 91 % of control and the T/C (dose: 120.0 mg/kg/injection, schedule: Q01DX005 (ip), vehicle: Klucel (hydroxypropylcellulose) (HPC)) is 87 % of control.
Take `O=c1[nH]cc(C(O)Cc2ccccc2)c(=O)[nH]1` (stereo unspecified): the T/C under setting [13] is 104 % of control; the T/C under setting [14] was 100 % of control; the T/C (dose: 400.0 mg/kg/injection, schedule: Q01DX009 (ip), vehicle: saline with Tween-80) is 100 % of control.
Turning to `CCC(=O)NC(Cc1ccsc1)C(=O)O` (stereo unspecified), the T/C is 103 % of control under setting [8]; 107 % of control under setting [9]; 98 % of control under setting [10]; 90 % of control under setting [11]; 90 % of control (dose: 200.0 mg/kg/injection, schedule: Q01DX009 (ip), vehicle: saline).
Turning to `Cc1cc(N2CCOCC2)nc(N2CCOCC2)c1C#N`, the T/C is, setting by setting: (dose: 6.25 mg/kg/injection, schedule: Q01DX005 (ip), vehicle: saline with Tween-80) 100 % of control; (dose: 12.5 mg/kg/injection, schedule: Q01DX005 (ip), vehicle: saline with Tween-80) 108 % of control; under setting [7], 99 % of control.
`O=NN(CCCl)C(=O)Nc1ccc(CCO)cc1`: the T/C was 118 % of control (dose: 0.22 mg/kg/injection, schedule: Q01DX009 (ip), vehicle: saline + alcohol); 154 % of control (dose: 0.5 mg/kg/injection, schedule: Q01DX009 (ip), vehicle: saline + alcohol); 172 % of control (dose: 0.75 mg/kg/injection, schedule: Q01DX009 (ip), vehicle: saline + alcohol); 272 % of control (dose: 4.0 mg/kg/injection, schedule: Q01DX009 (ip), vehicle: saline); 272 % of control (dose: 6.0 mg/kg/injection, schedule: Q01DX009 (ip), vehicle: saline); 272 % of control (dose: 9.0 mg/kg/injection, schedule: Q01DX009 (ip), vehicle: saline).
Take `Clc1c2c(c(Cl)c3c1=Nc1ncccc1O3)=Nc1ncccc1O2`: the T/C runs as follows: under setting [12], 100 % of control; under setting [13], 96 % of control; under setting [14], 99 % of control.
For `O=c1[nH]c(=O)n(C2OC(CO)C(O)C2O)cc1CC(F)(F)C(F)(F)F` (stereo unspecified), the T/C is 107 % of control (dose: 50.0 mg/kg/injection, schedule: Q01DX001 (ip), vehicle: saline with Tween-80); 106 % of control (dose: 100.0 mg/kg/injection, schedule: Q01DX001 (ip), vehicle: saline with Tween-80); 100 % of control (dose: 200.0 mg/kg/injection, schedule: Q01DX001 (ip), vehicle: saline with Tween-80); 101 % of control (dose: 400.0 mg/kg/injection, schedule: Q01DX001 (ip), vehicle: saline with Tween-80).
Regarding `CS(=O)(=O)C(CCC(=O)C(c1ccccc1)c1ccccc1)C(=O)c1ccccc1` (stereo unspecified), the T/C is 110 % of control under setting [15], 109 % of control under setting [16] and 93 % of control under setting [17].
Consider `COc1ccc2[nH]c3c(C)c4cc[n+](CCCCCCCC[n+]5ccc6c(C)c7[nH]c8ccc(OC)cc8c7c(C)c6c5)cc4c(C)c3c2c1`, for which the T/C was 117 % of control (dose: 0.78 mg/kg/injection, schedule: Q04DX003 (ip), vehicle: other); 122 % of control (dose: 25.0 mg/kg/injection, schedule: Q04DX003 (ip), vehicle: other); 119 % of control (dose: 50.0 mg/kg/injection, schedule: Q04DX003 (ip), vehicle: other).
`O=[N+]([O-])/C=C/c1cc2ccc3ccccc3c2[nH]1`: the T/C is 94 % of control under setting [1], 89 % of control under setting [2] and 102 % of control under setting [3].
In the case of `O=[N+]([O-])c1ccc2c3c(ccc([N+](=O)[O-])c13)CC2`, the T/C was 93 % of control under setting [4], 93 % of control under setting [5] and 91 % of control under setting [6].

The values above are taken from PubChem BioAssay AID330 (DTP/NCI, 2004).
